Measured values reported in ChEMBL document CHEMBL1201862, “PubChem BioAssay data set” (2004).
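All cell lines were grown in 96-well plates and treated with compound for 48 hours. Here, GI50 denotes the concentration required for 50% inhibition of growth.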 The source made the active and inactive calls. Rule as the data show it: active = GI50 up to about 1.1 µM and inactive = higher.

Columns and labels:
Test in all cases: NCI anticancer screen, dose series, 48 h
[1] = system: MDA-MB-435
[2] = system: HOP-92
[3] = system: NCI-H522
[4] = system: MDA-N
[5] = system: SK-MEL-5
[6] = system: DU-145
[7] = system: K562
[8] = system: SNB-75
[9] = system: ACHN
[10] = system: 786-0
[11] = system: NCI/ADR-RES
[12] = system: MDA-MB-231
[13] = system: RXF 393
[14] = system: A549
[15] = system: BT-549
[16] = system: CAKI-1
[17] = system: UACC-257
[18] = system: RPMI-8226
[19] = system: NCI-H460
[20] = system: OVCAR-3

SMILES	GI50 [1]	GI50 [2]	GI50 [3]	GI50 [4]	GI50 [5]	GI50 [6]	GI50 [7]	GI50 [8]	GI50 [9]	GI50 [10]	GI50 [11]	GI50 [12]	GI50 [13]	GI50 [14]	GI50 [15]	GI50 [16]	GI50 [17]	GI50 [18]	GI50 [19]	GI50 [20]
O=C1CCC(c2ccccc2)(c2ccccc2)CC1	> 100 µM (inactive)	> 100 µM (inactive)	71.3 µM (inactive)	45.6 µM (inactive)	30.7 µM (inactive)	> 100 µM (inactive)	29.7 µM (inactive)	> 100 µM (inactive)	> 100 µM (inactive)	> 100 µM (inactive)	40 µM (inactive)	> 100 µM (inactive)	> 100 µM (inactive)	49.4 µM (inactive)	83.2 µM (inactive)	> 100 µM (inactive)	> 100 µM (inactive)	30.7 µM (inactive)	> 100 µM (inactive)	> 100 µM (inactive)
COC(=O)C1=C(C)NC2=C(C(=O)c3ccccc32)C1c1c[nH]nc1-c1ccccc1 (stereo not drawn)	57.4 µM (inactive)	> 100 µM (inactive)	19.7 µM (inactive)	51.5 µM (inactive)	31.8 µM (inactive)	> 100 µM (inactive)	> 100 µM (inactive)	13.3 µM (inactive)	35.2 µM (inactive)	> 100 µM (inactive)	42.1 µM (inactive)	30.1 µM (inactive)	43.4 µM (inactive)	47.6 µM (inactive)	> 100 µM (inactive)	63.8 µM (inactive)	70.5 µM (inactive)	49 µM (inactive)	51.9 µM (inactive)	48.6 µM (inactive)
Nc1ncnc2c1ccn2C1OC2COP(=O)(O)OC2C1O (stereo not drawn)	0.273 µM (active)	0.462 µM (active)	0.14 µM (active)	0.379 µM (active)	0.327 µM (active)	0.723 µM (active)	0.261 µM (active)	0.231 µM (active)	0.0412 µM (active)	0.281 µM (active)	0.565 µM (active)	0.33 µM (active)	0.212 µM (active)	0.365 µM (active)	0.482 µM (active)	0.0904 µM (active)	1.26 µM (inactive)	0.124 µM (active)	0.168 µM (active)	0.275 µM (active)
CN(C)CCCn1c(Cc2ccccc2)nc2cc(C(F)(F)F)ccc21	15.9 µM (inactive)	20 µM (inactive)	24.4 µM (inactive)	18.3 µM (inactive)	17.3 µM (inactive)	67.5 µM (inactive)	18.5 µM (inactive)	52.8 µM (inactive)	62.8 µM (inactive)	19.1 µM (inactive)	65.6 µM (inactive)	22.4 µM (inactive)	21.2 µM (inactive)	14.7 µM (inactive)	29.2 µM (inactive)	17.7 µM (inactive)	18.1 µM (inactive)	–	19.6 µM (inactive)	27.9 µM (inactive)
Cn1c2c(c3c(=O)[nH]ncc31)CCc1ccccc1-2	32.1 µM (inactive)	44.8 µM (inactive)	42.5 µM (inactive)	25.9 µM (inactive)	17.8 µM (inactive)	35.7 µM (inactive)	29.8 µM (inactive)	21.2 µM (inactive)	25.4 µM (inactive)	25.4 µM (inactive)	27.4 µM (inactive)	21.1 µM (inactive)	18.8 µM (inactive)	29.1 µM (inactive)	23.8 µM (inactive)	32.1 µM (inactive)	17.9 µM (inactive)	25.5 µM (inactive)	16 µM (inactive)	26.4 µM (inactive)
O=c1cc(-c2ccccc2)[nH]c2ccc(S)cc12	21.4 µM (inactive)	35.8 µM (inactive)	21.7 µM (inactive)	> 10 µM (inactive)	15.5 µM (inactive)	52.2 µM (inactive)	21.9 µM (inactive)	24.6 µM (inactive)	30.2 µM (inactive)	79.8 µM (inactive)	24.9 µM (inactive)	65.2 µM (inactive)	31.5 µM (inactive)	52.1 µM (inactive)	23.5 µM (inactive)	–	42.5 µM (inactive)	44.2 µM (inactive)	31.8 µM (inactive)	28.6 µM (inactive)
CC(=O)OC1[C@@H](OC(C)=O)CN(OCc2ccccc2)C[C@H]1OC(C)=O (stereo partly drawn)	> 100 µM (inactive)	> 100 µM (inactive)	> 100 µM (inactive)	> 100 µM (inactive)	> 100 µM (inactive)	> 100 µM (inactive)	> 100 µM (inactive)	> 100 µM (inactive)	> 100 µM (inactive)	> 100 µM (inactive)	> 100 µM (inactive)	> 100 µM (inactive)	> 100 µM (inactive)	> 100 µM (inactive)	> 100 µM (inactive)	> 100 µM (inactive)	> 100 µM (inactive)	> 100 µM (inactive)	> 100 µM (inactive)	> 100 µM (inactive)
O=C1CN(C(=O)C2CCCN2C(=O)C2CCCN2)C(=O)CN1 (stereo not drawn)	36.8 µM (inactive)	> 100 µM (inactive)	> 100 µM (inactive)	> 100 µM (inactive)	> 100 µM (inactive)	> 100 µM (inactive)	> 100 µM (inactive)	> 100 µM (inactive)	> 100 µM (inactive)	> 100 µM (inactive)	> 100 µM (inactive)	> 100 µM (inactive)	> 100 µM (inactive)	> 100 µM (inactive)	> 100 µM (inactive)	> 100 µM (inactive)	–	> 100 µM (inactive)	> 100 µM (inactive)	> 100 µM (inactive)
Cc1nc2c(Cl)cc(Cl)cc2c2c1CCO2	> 100 µM (inactive)	73.1 µM (inactive)	> 100 µM (inactive)	> 100 µM (inactive)	> 100 µM (inactive)	> 100 µM (inactive)	> 100 µM (inactive)	60.8 µM (inactive)	> 100 µM (inactive)	> 100 µM (inactive)	> 100 µM (inactive)	> 100 µM (inactive)	87.3 µM (inactive)	> 100 µM (inactive)	> 100 µM (inactive)	23.3 µM (inactive)	> 100 µM (inactive)	> 100 µM (inactive)	> 100 µM (inactive)	–
O=c1c2ncn(C3CC(O)C(CO)O3)c2nnn1Cc1ccccc1[N+](=O)[O-] (stereo not drawn)	> 100 µM (inactive)	57.8 µM (inactive)	> 100 µM (inactive)	> 100 µM (inactive)	> 100 µM (inactive)	> 100 µM (inactive)	> 100 µM (inactive)	> 100 µM (inactive)	> 100 µM (inactive)	> 100 µM (inactive)	> 100 µM (inactive)	> 100 µM (inactive)	17.8 µM (inactive)	> 100 µM (inactive)	> 100 µM (inactive)	> 100 µM (inactive)	> 100 µM (inactive)	> 100 µM (inactive)	> 100 µM (inactive)	75 µM (inactive)
CC(=O)c1ccc2c(c1)N(CCCN1CCN(CCO)CC1)c1ccccc1C2	8.71 µM (inactive)	12.9 µM (inactive)	16.3 µM (inactive)	13 µM (inactive)	12.2 µM (inactive)	14.3 µM (inactive)	13.5 µM (inactive)	16.6 µM (inactive)	20.3 µM (inactive)	16.9 µM (inactive)	13.9 µM (inactive)	13.2 µM (inactive)	15.4 µM (inactive)	17.9 µM (inactive)	14.7 µM (inactive)	13.6 µM (inactive)	5.78 µM (inactive)	12.9 µM (inactive)	15.8 µM (inactive)	15.5 µM (inactive)
C=C(CN(C)C)C(=O)c1ccc(C)cc1C	5.94 µM (inactive)	3.74 µM (inactive)	2.9 µM (inactive)	4.55 µM (inactive)	14.1 µM (inactive)	17.6 µM (inactive)	1.15 µM (inactive)	16.5 µM (inactive)	7.73 µM (inactive)	5.19 µM (inactive)	7 µM (inactive)	13.3 µM (inactive)	4.51 µM (inactive)	32.2 µM (inactive)	3.59 µM (inactive)	3.09 µM (inactive)	9.51 µM (inactive)	1.16 µM (inactive)	18.8 µM (inactive)	7.87 µM (inactive)
CC(C)CCCC(C)[C@H]1CC[C@H]2N/C(=N/c3ccccc3)CCC[C@]12C (stereo partly drawn)	1.88 µM (inactive)	2.97 µM (inactive)	–	3.03 µM (inactive)	1.27 µM (inactive)	6.52 µM (inactive)	1.33 µM (inactive)	1.88 µM (inactive)	–	1.77 µM (inactive)	1.68 µM (inactive)	1.14 µM (inactive)	1.42 µM (inactive)	2.81 µM (inactive)	2.9 µM (inactive)	2.29 µM (inactive)	2.12 µM (inactive)	1.65 µM (inactive)	1.93 µM (inactive)	2.29 µM (inactive)
CC(C)C(C/C=C1\CC(CO)(COC(=O)C2CCCCC2)OC1=O)C(C)C (stereo not drawn)	44.8 µM (inactive)	16.9 µM (inactive)	16.5 µM (inactive)	24.1 µM (inactive)	31.6 µM (inactive)	12.3 µM (inactive)	6.25 µM (inactive)	12.9 µM (inactive)	16 µM (inactive)	13.7 µM (inactive)	20.7 µM (inactive)	16.8 µM (inactive)	19.1 µM (inactive)	16.8 µM (inactive)	23.7 µM (inactive)	18.7 µM (inactive)	32.2 µM (inactive)	–	24.4 µM (inactive)	20 µM (inactive)
